Test results published in US8367715B2, “Pyrazole derivatives, preparation thereof, and therapeutic use thereof” (priority 2009, dated 2013).

What was measured:
human KDR enzyme = target: T1, human KDR enzyme (Homo sapiens, UniProt P35968); test: KDR kinase inhibition, phosphorylation of PLCγ substrate, scintillation Flash Plate; assay type: biochemical; settings: read-out: KDR, concentration that inhibits 50% of the kinase activity
T1 construct: The cytoplasmic domain (residues 790 to 1356) of the human KDR enzyme; GST; made in house; host or cells: SF21 insect cells (baculovirus, pFastBac)
Description: The inhibitory effect of the compounds is determined in an in vitro test of phosphorylation of substrate via a scintillation technique (96-well plate of basic Flash Plate type).
The cytoplasmic domain (residues 790 to 1356) of the human KDR enzyme was cloned in the form of a GST fusion in the pFastBac baculovirus expression vector. The protein was expressed in the SF21 cells, purified and activated by autophosphorylation. The substrate is composed of residues 658 to 850 of the PLCγ expressed and purified in the form of a GST fusion protein.
The KDR kinase activity is measured in the buffer 20 mM MOPS, 10 mM MgCl2, 10 mM MnCl2, 1 mM DTT, pH=7.4. The compounds are initially diluted in 100% DMSO, then prepared as a 10× solution in 30% DMSO/70% buffer. […] The radioactivity in each well is measured using a Trilux-βWallac radioactivity counter.
The background noise is determined by measuring the radioactivity in four different wells containing ATP (radiolabeled and cold) and the substrate, in the absence of enzyme and of compound. The control activity is measured in four different wells containing all the reagents, but in the absence of compound.
The inhibition of the KDR activity with the compound of the invention is expressed as a percentage of inhibition of the control activity determined in the absence of compound.

human hepatocytes = test: Intrinsic clearance using human hepatocytes; assay type: in vitro ADME; settings: for intrinsic clearance value: 5 μM, 0-24 hours; for inter-individual variability of intrinsic clearance: cryopreserved and fresh donor preparations
Description: Evaluation of the intrinsic clearance of the compounds using human hepatocytes: experimental protocol.
NB: The in vitro test described below on human liver cells is used to predict an important pharmacokinetic parameter: the metabolization by the liver for a given compound when it is administered to man.
Incubations of cryopreserved preparations of human hepatocytes (from IVT: IVT-TLN-180608 from In Vitro Technologies, inc. Baltimore, Md., USA) and fresh preparations of human hepatocytes (from Biopredic: HEP200239) were carried out in plates comprising 48 collagen-coated wells.
The kinetics were initiated by the addition, to the culture medium, of the compounds at a final concentration of 5 μM, in the absence or in the presence of 10 μM ketoconazole (CYP3A4 inhibitor). The incubation volume is 100 μl, the incubation time: 0-24 hours (standard kinetic points: 0-0.5-1-2-4-6-8-24 hours).
The kinetics were stopped by addition of acetonitrile/water, with corticosterone, as an internal standard. The cells were detached then lysed. The intracellular and extracellular media were recombined and frozen (−20° C.) in order to be stored until the LC-MS/MS analysis.
The combined extracellular and intracellular media were defrosted, submitted to ultrasound action, agitated with a vortex and centrifuged at 3000 g for 20 minutes. The supernatants were injected and analysed by LC-MS/MS.
The maximum initial in vitro rate was calculated for the specific metabolites of the P450 cytochromes and expressed in nmol/hour/million of cells. V=[concentration at T(n)−concentration at T(n−1)]/[T(n)−T(n−1)]
The intrinsic clearance was determined and expressed in ml/hour/million of cells Clint=dose/AUC0-24 h Dose=amount at T(0)(nmol/million of cells)
AUC0-24 h: calculated by WinNonlin, with a non-compartmental analysis modeling an intravenous injection of bolus type
From IVT: ● IVT, TLN group: person
From Biopredic: ● HEP200239: person, unknown

PDGFRβ = PDGFRβ (Homo sapiens, UniProt P09619); test: PDGFR kinase phosphorylation activity by radioactive labeling; assay type: biochemical; settings: read-out: PDGFRβ, concentration that inhibits 50% of the kinase activity
Description: 4. Screening of Molecules by Measuring, by Radioactive Labeling, the PDGFR Kinase Phosphorylation Activity in the Presence of PLCγ Substrate The test is carried out in a similar manner to that carried out with the FLT1 enzyme by using, instead of 13 nM of Flt1, 16 nM of PDGFR enzyme and mixed in the 96-well plates are 18 μl of GST-PDGFR enzyme at 4 mg/ml (for a purity of 80%) batch VLT802.

FGFR1 = FGFR1 (Homo sapiens, UniProt P11362); test: FGFR kinase phosphorylation activity by radioactive labeling; assay type: biochemical; settings: read-out: FGFR1, concentration that inhibits 50% of the kinase activity
Description: 5. Screening of Molecules by Measuring, by Radioactive Labeling, the FGFR Kinase Phosphorylation Activity in the Presence of PLCγ Substrate
The test is carried out in a similar manner to that carried out with the FLT1 enzyme by using, instead of 13 nM of Flt1, 27 nM of FGFR enzyme and mixed in the 96-well plates are 18 μl of GST-FGFR enzyme at 1.1 mg/ml (for a purity of 100%): (batch JCE3666).

T1 sequence (P35968 790-1356): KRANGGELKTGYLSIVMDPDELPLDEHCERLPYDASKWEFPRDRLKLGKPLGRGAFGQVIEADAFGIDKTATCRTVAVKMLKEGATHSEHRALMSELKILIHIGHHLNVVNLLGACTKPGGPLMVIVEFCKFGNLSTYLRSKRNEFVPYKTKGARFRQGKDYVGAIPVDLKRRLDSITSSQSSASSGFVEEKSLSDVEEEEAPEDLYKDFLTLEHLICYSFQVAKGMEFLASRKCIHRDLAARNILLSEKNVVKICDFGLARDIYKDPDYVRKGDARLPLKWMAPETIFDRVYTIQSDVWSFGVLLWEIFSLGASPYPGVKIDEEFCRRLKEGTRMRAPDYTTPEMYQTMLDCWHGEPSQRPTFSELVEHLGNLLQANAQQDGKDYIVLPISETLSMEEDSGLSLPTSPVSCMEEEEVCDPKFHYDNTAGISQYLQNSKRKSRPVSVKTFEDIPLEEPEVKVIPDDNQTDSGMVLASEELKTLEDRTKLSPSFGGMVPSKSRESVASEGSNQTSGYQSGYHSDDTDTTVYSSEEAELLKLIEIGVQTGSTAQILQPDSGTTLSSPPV
Chain of PDGFRβ (P09619 33-1106, species assumed): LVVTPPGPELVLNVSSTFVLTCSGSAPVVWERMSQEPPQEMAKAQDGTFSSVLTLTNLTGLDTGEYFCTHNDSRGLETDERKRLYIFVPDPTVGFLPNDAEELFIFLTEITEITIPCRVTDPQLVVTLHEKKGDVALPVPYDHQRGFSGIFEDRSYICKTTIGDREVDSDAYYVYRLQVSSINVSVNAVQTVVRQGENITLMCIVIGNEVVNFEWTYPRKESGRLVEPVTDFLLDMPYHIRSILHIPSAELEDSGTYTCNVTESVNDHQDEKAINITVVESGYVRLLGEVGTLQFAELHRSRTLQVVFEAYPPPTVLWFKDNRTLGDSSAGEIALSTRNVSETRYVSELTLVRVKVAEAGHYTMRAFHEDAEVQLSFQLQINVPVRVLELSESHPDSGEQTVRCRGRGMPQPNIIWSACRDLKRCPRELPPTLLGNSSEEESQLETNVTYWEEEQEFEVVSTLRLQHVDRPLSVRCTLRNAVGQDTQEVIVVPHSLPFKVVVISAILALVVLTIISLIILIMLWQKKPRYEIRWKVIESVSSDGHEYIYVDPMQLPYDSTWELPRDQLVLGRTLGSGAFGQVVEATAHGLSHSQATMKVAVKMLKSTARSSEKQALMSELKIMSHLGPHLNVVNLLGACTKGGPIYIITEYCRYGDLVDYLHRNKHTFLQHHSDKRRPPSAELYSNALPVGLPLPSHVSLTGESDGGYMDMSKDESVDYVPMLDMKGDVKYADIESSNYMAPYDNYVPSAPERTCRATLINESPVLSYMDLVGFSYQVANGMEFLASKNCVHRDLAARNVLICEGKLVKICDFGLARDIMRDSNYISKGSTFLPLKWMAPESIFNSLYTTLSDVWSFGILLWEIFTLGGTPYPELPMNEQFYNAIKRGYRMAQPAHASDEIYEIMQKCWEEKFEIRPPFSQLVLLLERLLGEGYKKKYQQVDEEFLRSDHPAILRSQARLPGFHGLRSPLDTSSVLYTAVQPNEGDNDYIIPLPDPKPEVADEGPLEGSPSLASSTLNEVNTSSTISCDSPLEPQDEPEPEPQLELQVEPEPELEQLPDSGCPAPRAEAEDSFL
Chain of FGFR1 (P11362 22-822, species assumed): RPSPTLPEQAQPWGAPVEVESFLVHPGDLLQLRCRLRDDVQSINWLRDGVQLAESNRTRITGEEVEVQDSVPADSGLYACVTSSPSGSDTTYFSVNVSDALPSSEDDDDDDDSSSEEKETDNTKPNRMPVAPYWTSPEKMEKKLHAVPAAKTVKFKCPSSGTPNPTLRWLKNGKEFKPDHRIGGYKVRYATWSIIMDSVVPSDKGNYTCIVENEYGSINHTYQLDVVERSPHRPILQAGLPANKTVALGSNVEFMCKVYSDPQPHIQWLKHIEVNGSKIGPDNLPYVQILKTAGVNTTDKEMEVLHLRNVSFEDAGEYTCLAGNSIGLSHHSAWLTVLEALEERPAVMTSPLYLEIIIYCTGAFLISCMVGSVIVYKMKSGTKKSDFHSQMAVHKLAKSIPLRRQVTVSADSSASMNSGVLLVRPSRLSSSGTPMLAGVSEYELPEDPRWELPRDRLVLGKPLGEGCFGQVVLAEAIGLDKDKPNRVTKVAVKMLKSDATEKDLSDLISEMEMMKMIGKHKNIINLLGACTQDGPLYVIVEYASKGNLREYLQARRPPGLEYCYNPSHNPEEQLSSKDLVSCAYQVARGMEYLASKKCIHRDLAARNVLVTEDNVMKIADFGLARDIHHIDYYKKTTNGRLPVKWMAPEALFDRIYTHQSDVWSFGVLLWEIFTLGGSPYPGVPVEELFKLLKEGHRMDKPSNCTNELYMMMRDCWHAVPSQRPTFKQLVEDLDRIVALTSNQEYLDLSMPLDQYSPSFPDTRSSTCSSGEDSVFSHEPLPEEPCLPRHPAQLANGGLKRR

Compound | IC50 (human KDR enzyme) [nM] | classification of the intrinsic clearance (human hepatocytes) | intrinsic clearance value (human hepatocytes) | inter-individual variability of intrinsic clearance (human hepatocytes) | IC50 (PDGFRβ) [nM] | IC50 (FGFR1) [nM]
Cl.NC(=O)c1n[nH]cc1NCc1cc(F)cc(NC(=O)Nc2ccc(C(F)(F)F)cc2Cl)c1 [Example 1, 4-{3-[3-(2-Chloro-4-trifluoromethylphenyl)ureido]-5-fluorobenzylamino}-1H-pyrazole-3-carboxamide hydrochloride] | 3 | intermediate (Clint<0.040 ml·h^−1·10^−6 cell: intermediate intrinsic clearance) | 0.057 ml/hour/million of cells | low | 11 | 54
Cl.NC(=O)c1n[nH]cc1NCc1cc(F)cc(NC(=O)Nc2ccc(C(F)(F)F)cc2F)c1 [Example 2, 4-{3-[3-(2-Fluoro-4-trifluoromethylphenyl)ureido]-5-fluorobenzylamino}-1H-pyrazole-3-carboxamide hydrochloride] | 2 | intermediate (Clint<0.040 ml·h^−1·10^−6 cell: intermediate intrinsic clearance) | 0.055 ml/h/million of cells | low | 20 | 92
